According to patent US7300503B2, “Dye mixture and ink containing the same, inkjet recording method and image forming method” (Fujifilm Corporation, priority 2004, dated 2007):

Experiment: Color toner: light fastness of image
Assay type: physicochemical
Settings: xenon light 85,000 lx, 5 days, dye remaining ratio
Method: A mixture of 3 parts by weight of each of the phthalocyanine compounds (Compounds 101, 102, 103 and 107) according to the invention and 100 parts by weight of a resin for toner (styrene-acrylate copolymer, trade name: Hymer TB-1000F, produced by Sanyo Chemical Industries, Ltd.) was pulverized in a ball mill and melt-blended by heating at 150° C. After cooling, the resulting solid was coarsely pulverized by a hammer mill and then finely pulverized by an air jet-type pulverizer. The particles were classified to select those having a particle size of 1 to 20 micrometer to prepare a toner. To 10 parts by weight of the toner, 900 parts by weight of carrier iron powder (trade name: FEV250/400, produced by Powdertech Co., Ltd.) was uniformly blended to prepare a developer. Each developer was prepared in the same manner as above except for using 3 parts by weight of dye or 6 parts by weight of pigment as a comparative coloring agent as shown in Table 7 below. Using the developer, duplicate was conducted by a dry type plain paper electrophotographic copying machine (trade name: NP-5000 produced by Canon Inc.).
For the evaluation, by the developer using the color toner containing the compound according to the invention, a reflection image and a transmission image were prepared on paper and OHP sheet according to the above-described image forming method, respectively. The evaluation was conducted in the following manner. A toner adhesion amount was in a range of 0.7±0.05 mg/cm^2 for the evaluation.
With the image formed, color tone and light fastness were evaluated. Regarding the color tone, the evaluation was visually conducted by a three-stage rating of best, good and poor. In Table 7, symbols ∘, Δ and × mean best color tone, good color tone and poor color tone, respectively. The light fastness was evaluated by measuring image density (Ci) just after the recording, irradiating the image with xenon light (85,000 1×) using Weatherometer (Atlas C. 165) for 5 days and then measuring again image density (Cf), and calculated a dye remaining ratio ([…]). The image density was measured by a reflection densitometer (X-Rite 310TR). In Table 7, symbols ∘, Δ and × mean the dye remaining ratio of 90% or more, the dye remaining ratio of less than 90% to 80% and the dye remaining ratio of less than 80%, respectively.

Compound	Light Fastness
CNc1ccc(O)c2c1C(=O)c1c(O)ccc(NC)c1C2=O [Comparative Dye 3]	Δ (the dye remaining ratio of less than 90% to 80%)
Cc1ccc(Nc2ccc(Nc3ccc(C)cc3)c3c2C(=O)c2c(Nc4ccc(C)cc4)ccc(Nc4ccc(C)cc4)c2C3=O)cc1 [Comparative Dye 4]	Δ (the dye remaining ratio of less than 90% to 80%)
C.I. Solvent Blue 38	∘ (the dye remaining ratio of 90% or more)
C.I. Solvent Blue 70	∘ (the dye remaining ratio of 90% or more)
